Where two headings read alike, the source gives them in different places. Each block holds one compound with its values, some of them ahead of it.
Columns and labels:
[1] = BCS classification from solubility and permeability
Source text: CV-8972 can therefore be considered as BCS Class 1 per se, but the pre-systemic metabolism to CV-8814 and possibly other metabolites may complicate and impact the actual biopharmaceutical absorption profile found in humans.

[2] = Decomposition kinetics of CV-8972 in media simulating the GI tract, 37° C., 0.2 mg/mL (HPLC); type: physicochemical
Method: The solution stability of CV-8972 was evaluated in multiple media currently used to simulate dissolution and stability conditions in the various sections of the GI tract. As CV-8972 will be subject to hydrolysis as it is dissolving in the GI tract, it will be important to understand these kinetics in terms of designing instant and controlled-release formulations. HPLC methods were used to perform these assessments.

[3] = pH stability profile of a 1 mg/mL solution of CV-8972 at 23° C.; type: physicochemical
Method: The pH stability profile is summarized and shown in Table 2 for a 1 mg/mL solution of CV-8972 at 23° C.
The hydrolysis proceeds via the first step shown in FIG. 1, as Nicotinic acid and CV-8814 are the only decomposition products generated. The optimal pH for solution stability appears to be around pH 5-5.1 for a 1 mg/mL solution with acid-catalyzed hydrolysis increasing at pH values less than 5.0 and base-catalyzed hydrolysis increasing above pH 5.0.

[4] = Phase 1 FIH study, multiple-dose MR part: safety and tolerability; type: in vivo, human
[5] = Phase 1 FIH study, single-dose MR part: safety and tolerability; type: in vivo, human
[6] = Phase 1 FIH study: overall safety (vital signs, 12-lead ECG); type: in vivo, human; settings: after administration as the MR formulations, healthy subjects
Method: These assessments were made using an automated device. Body temperature and respiratory rate were measured subsequently.
Safety and tolerability were assessed through AEs, clinical laboratory, vital signs, ECGs, continuous cardiac monitoring (telemetry), and physical examination findings, and any other parameter that was relevant for safety assessment.

[7] = human, in vivo, 200 mg
Source text: The MR formulation of IMB-1018972 to be administered on Day 13 under fed conditions was 1 of the 4 MR formulations administered on Days 1, 4, 7, and 10 under fasted conditions.
The effect of food on the relative oral bioavailability of IMB-1018972 following a single oral administration was explored. This occurred in the single-dose MR part where subjects received the same dose, first under fasted conditions and then under fed conditions.

[8] = human, in vivo, 150 mg

BCS class [1]: BCS Class 1 | half-life at 0.2 mg/mL ([2]; 0.1M HCl, pH 1, 0.1M HCl, pH 1.0, no surfactants): 3.13 h | half-life at 0.2 mg/mL ([2]; FaSSGF, pH 1.6, FaSSGF, pH 1.6): 48.5 h | half-life at 0.2 mg/mL ([2]; FaSSIF, pH 6.5, FaSSIF, pH 6.5): 13.5 h | half-life at 0.2 mg/mL ([2]; FeSSIF (medium simulating the GI tract), pH 5.8, FeSSIF, pH 5.8): 99.6 h | half-life at 0.2 mg/mL ([2]; pH 6, BiCarb adj (0.1M HCl neutralized with sodium bicarbonate), pH 6-8.2): 1.52 h | half-life at 1 mg/mL ([3]; 20 mM ammonium acetate buffer, pH 5.05, 20 mM Am. Acetate): 658 h | half-life at 1 mg/mL ([3]; 20 mM phosphate buffer, pH 3.52, 20 mM Phos): 254 h | half-life at 1 mg/mL ([3]; 20 mM phosphate buffer, pH 6.5, 20 mM Phos): 61.9 h | half-life at 1 mg/mL ([3]; 20 mM phosphate buffer, pH 6.88, 20 mM Phos): 33.6 h | 1st order Kobs ([3]; pH 2.74, Water): 0.00516 hr − 1 | half-life at 1 mg/mL ([3]; pH 2.74, Water): 134 h | 1st order Kobs ([3]; pH 3.52, 20 mM Phos): 0.00273 hr − 1 | 1st order Kobs ([3]; pH 5.05, 20 mM Am. Acetate): 0.00105 hr − 1 | 1st order Kobs ([3]; pH 5.64, 20 mM Phos): 0.00248 hr − 1 | 1st order Kobs ([3]; pH 6.5, 20 mM Phos): 0.01119 hr − 1 | 1st order Kobs ([3]; pH 6.88, 20 mM Phos): 0.02064 hr − 1 | half-life at 1 mg/mL ([3]; phosphate buffer, pH 5.64, 20 mM Phos): 280 h
Compound: COc1ccc(CN2CCN(CCOC(=O)c3cccnc3)CC2)c(OC)c1OC [CV-8972, 2-[4-[(2,3,4-trimethoxyphenyl)methyl]piperazin-1-yl]ethyl pyridine-3-carboxylate]
subjects reporting TEAEs ([4]; 200 mg 8-hour MR formulation q12h fed, 5 days, 12 subjects): 100% | number of drug-related TEAEs of flushing (vascular disorders) ([4]; multiple-dose MR part): 2 | subjects with TEAEs considered not related to the study drug ([4]; multiple-dose MR part): 75% | subjects with TEAEs considered related to the study drug ([4]; multiple-dose MR part): 58.3% | subjects with TEAEs, SOC gastrointestinal disorders ([4]; multiple-dose MR part): 41.7% | subjects with TEAEs, SOC general disorders and administration site conditions ([4]; multiple-dose MR part): 33.3% | subjects with TEAEs, SOC musculoskeletal and connective tissue disorders ([4]; multiple-dose MR part): 33.3% | subjects with TEAEs, SOC nervous system disorders ([4]; multiple-dose MR part): 58.3% | subjects with TEAEs, SOC renal and urinary disorders (pollakiuria) ([4]; multiple-dose MR part): 33.3% | subjects with drug-related TEAEs of flushing (vascular disorders) ([4]; multiple-dose MR part): 16.7% | subjects with drug-related TEAEs of pollakiuria ([4]; multiple-dose MR part): 33.3% | subjects with drug-related TEAEs, nervous system disorders ([4]; multiple-dose MR part): 16.7% | number of TEAEs of mild severity ([5]; of 37 TEAEs): Thirty-six | number of TEAEs of moderate severity ([5]; of 37 TEAEs): 1 | tolerability ([5]; single doses of 50 mg and 200 mg MR formulations (4-hour, 8-hour) fasted, 200 mg 8-hour MR fed, healthy subjects): well tolerated | subjects with TEAEs considered not related to the study drug ([5]; single-dose MR part): 83.3% | subjects with TEAEs considered related to the study drug ([5]; single-dose MR part): 33.3% | subjects with TEAEs, SOC gastrointestinal disorders ([5]; single-dose MR part): 33.3% | subjects with TEAEs, SOC general disorders and administration site conditions ([5]; single-dose MR part): 58.3% | subjects with TEAEs, SOC nervous system disorders ([5]; single-dose MR part): 58.3% | subjects with drug-related TEAEs of pollakiuria ([5]; single-dose MR part): 16.7% | subjects reporting TEAEs ([5]; single-dose MR part, 12 subjects): 83.3% | hemodynamic changes and QTc-interval [6]: no findings of hemodynamic changes, nor changes in the QTc-interval

Cmax higher under fed relative to fasted conditions [7]: approximately 42% | effect of food on exposure parameters AUC0-t and AUC0-inf [7]: No evidence for an effect of food | food effect estimate for AUC0-inf (ratio of geometric means fed/fasted) [7]: 1.16 | food effect estimate for AUC0-t (ratio of geometric means fed/fasted) [7]: 1.16 | food effect estimate for Cmax (ratio of geometric means fed/fasted) [7]: 1.42 | Cmax lower under fed relative to fasted conditions [8]: approximately 36% | effect of food on exposure parameters AUC0-t and AUC0-inf [8]: No evidence for an effect of food
Compound: COc1ccc(CN2CCN(CCO)CC2)c(OC)c1OC [CV-8814, 2-[4-[(2,3,4-trimethoxyphenyl)methyl]piperazin-1-yl]ethanol]

effect of food on exposure parameters Cmax, AUC0-t and AUC0-inf [7]: No evidence for an effect of food | food effect estimate for AUC0-inf (ratio of geometric means fed/fasted) [7]: 0.97 | food effect estimate for AUC0-t (ratio of geometric means fed/fasted) [7]: 0.99 | food effect estimate for Cmax (ratio of geometric means fed/fasted) [7]: 1.10 | effect of food on exposure parameters Cmax, AUC0-t and AUC0-inf [8]: No evidence for an effect of food
Compound: COc1ccc(CN2CCNCC2)c(OC)c1OC [trimetazidine, reference compound]

Reference: patent publication US20210401834A1 (IMBRIA PHARMACEUTICALS, INC., priority 2020, published 2021)
